Experimental data taken from publication PMC4774911, “Biochemical Screening of Five Protein Kinases from Plasmodium falciparum against 14,000 Cell-Active Compounds” (PLoS ONE, 2016).
Values joined by “and” are separate entries in the source; they are usually repeats but may differ in a detail not shown here. Equal entries are not always repeated.

How the values were obtained:
Experiment in all cases: biochemical
Design in all cases: endogenous in cells; host or cells: K562 cell extract; species or system K562 (extract); replicate k of n = 2 (each experiment ID is one independent experiment; two experiment IDs per compound)
Conditions in all cases: read-out: KDapp
[1] = molecular target: T1, NEK9 (Homo sapiens, UniProt Q8TD19)
T1 sequence (Q8TD19 1-979): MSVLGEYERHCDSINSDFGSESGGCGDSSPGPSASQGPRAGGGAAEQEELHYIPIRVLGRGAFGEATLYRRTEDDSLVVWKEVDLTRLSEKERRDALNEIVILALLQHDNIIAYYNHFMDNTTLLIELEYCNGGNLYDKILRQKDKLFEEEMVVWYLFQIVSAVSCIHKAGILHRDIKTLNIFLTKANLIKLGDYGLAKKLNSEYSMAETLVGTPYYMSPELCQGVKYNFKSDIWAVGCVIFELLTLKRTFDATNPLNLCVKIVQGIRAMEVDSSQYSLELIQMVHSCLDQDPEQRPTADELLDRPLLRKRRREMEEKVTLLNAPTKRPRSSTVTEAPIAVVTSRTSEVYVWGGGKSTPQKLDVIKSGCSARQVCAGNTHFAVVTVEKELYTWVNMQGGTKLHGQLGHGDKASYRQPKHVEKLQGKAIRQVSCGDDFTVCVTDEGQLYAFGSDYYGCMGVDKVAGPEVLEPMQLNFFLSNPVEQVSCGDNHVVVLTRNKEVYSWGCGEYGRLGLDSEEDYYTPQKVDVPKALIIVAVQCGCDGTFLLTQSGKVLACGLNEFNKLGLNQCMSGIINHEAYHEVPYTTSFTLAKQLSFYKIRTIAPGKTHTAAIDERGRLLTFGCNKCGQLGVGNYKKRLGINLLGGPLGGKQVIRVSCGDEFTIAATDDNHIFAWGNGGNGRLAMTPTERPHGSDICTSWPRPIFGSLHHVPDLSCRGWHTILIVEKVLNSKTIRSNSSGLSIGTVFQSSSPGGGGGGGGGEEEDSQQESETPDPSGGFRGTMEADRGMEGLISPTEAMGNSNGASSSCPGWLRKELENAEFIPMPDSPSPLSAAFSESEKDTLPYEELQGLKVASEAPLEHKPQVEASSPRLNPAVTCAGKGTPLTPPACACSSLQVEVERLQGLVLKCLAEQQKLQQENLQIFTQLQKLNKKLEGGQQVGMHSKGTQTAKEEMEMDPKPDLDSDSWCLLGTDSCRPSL

[2] = molecular target: STK38 (Homo sapiens, UniProt Q15208)
[3] = molecular target: T2, NLK (Homo sapiens, UniProt Q9UBE8)
T2 sequence (Q9UBE8 1-527): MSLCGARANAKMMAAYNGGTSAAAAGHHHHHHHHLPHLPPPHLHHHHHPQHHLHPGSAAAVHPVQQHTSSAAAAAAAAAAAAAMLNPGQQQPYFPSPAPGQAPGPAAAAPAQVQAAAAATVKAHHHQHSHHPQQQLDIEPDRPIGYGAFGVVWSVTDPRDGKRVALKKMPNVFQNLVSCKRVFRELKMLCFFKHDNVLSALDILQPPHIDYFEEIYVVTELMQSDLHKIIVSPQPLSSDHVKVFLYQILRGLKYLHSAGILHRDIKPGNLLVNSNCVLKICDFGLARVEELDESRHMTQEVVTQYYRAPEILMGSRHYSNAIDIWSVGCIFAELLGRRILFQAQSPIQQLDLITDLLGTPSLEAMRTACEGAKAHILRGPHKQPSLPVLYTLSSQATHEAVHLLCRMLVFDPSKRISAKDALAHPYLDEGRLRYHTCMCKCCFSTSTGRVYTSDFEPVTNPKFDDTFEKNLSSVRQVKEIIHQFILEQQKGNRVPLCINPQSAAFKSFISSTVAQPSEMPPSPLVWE

[4] = molecular target: PIM2 (Homo sapiens, UniProt Q9P1W9)
[5] = molecular target: T3, AURKA (Homo sapiens, UniProt O14965)
T3 sequence (O14965 1-403): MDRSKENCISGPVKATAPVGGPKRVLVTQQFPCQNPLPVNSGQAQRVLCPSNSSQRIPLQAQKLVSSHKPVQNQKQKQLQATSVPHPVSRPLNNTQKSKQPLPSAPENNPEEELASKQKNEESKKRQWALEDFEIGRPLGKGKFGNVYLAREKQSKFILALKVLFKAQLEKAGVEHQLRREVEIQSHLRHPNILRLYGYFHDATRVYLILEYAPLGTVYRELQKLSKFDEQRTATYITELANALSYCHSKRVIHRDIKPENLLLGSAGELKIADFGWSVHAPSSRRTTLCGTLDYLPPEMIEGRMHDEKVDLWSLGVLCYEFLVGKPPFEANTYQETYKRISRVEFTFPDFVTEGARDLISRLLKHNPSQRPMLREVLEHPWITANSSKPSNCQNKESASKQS

Sequence of STK38 (Q15208 whole entry): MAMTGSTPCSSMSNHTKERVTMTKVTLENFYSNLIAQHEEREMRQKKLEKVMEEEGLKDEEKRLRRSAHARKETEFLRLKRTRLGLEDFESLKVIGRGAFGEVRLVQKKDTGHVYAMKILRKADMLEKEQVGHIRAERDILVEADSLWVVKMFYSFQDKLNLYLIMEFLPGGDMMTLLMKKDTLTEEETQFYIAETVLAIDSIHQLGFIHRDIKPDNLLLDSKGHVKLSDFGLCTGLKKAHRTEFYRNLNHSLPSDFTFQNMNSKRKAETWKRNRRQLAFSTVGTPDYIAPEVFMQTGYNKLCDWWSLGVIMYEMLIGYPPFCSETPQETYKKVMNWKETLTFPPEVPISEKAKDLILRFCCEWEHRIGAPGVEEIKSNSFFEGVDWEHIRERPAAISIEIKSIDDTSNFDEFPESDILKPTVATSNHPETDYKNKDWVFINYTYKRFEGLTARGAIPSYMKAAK
Sequence of PIM2 (Q9P1W9 whole entry): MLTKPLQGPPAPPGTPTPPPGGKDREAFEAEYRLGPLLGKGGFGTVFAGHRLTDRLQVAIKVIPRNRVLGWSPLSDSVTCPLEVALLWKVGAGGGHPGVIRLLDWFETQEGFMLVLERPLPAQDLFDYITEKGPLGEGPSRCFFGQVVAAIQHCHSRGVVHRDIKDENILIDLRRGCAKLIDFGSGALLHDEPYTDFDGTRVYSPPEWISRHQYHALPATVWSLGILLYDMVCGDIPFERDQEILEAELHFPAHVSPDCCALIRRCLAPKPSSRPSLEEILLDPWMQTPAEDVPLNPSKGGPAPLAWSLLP

Which Kd [1] does the source give for `CN1CCN(c2ccc(Nc3ncc(C#N)c(Nc4ccccc4C(N)=O)n3)cc2)CC1.Cl` [TCMDC-134116] here?
The Kd was 396 nM and 299 nM.

And the Kd [2]?
Its Kd is 306 nM and 253 nM.

What about the Kd [3] of the same molecule?
The Kd was 950 nM and 890 nM.

And the Kd [4]?
Its Kd is 2970 nM.

And the Kd [5]?
Its Kd is 12.3 nM.
